Measured values from PubChem BioAssay (NCI).
Several values for one entry are separate records, joined by “and”; a condition that tells them apart may be missing. Identical values can stand only once.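 The compound was tested at five concentrations on cells cultured in 96-well plates, with a 48-hour exposure period. Here, GI50 denotes the concentration required for 50% inhibition of growth. Definition used: TGI = concentration required for complete inhibition of growth.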

Assays:
Assay in all cases: NCI-60 cell line screen, 48 h
[1] = system: NCI-H522 lung
[2] = system: EKVX NSCLC
[3] = system: BT-549 breast
[4] = system: CAKI-1 renal
[5] = system: SR leukemia
[6] = system: SK-MEL-5 melanoma
[7] = system: MOLT-4 leukemia
[8] = system: HOP-62 NSCLC
[9] = system: SN12C renal
[10] = system: SNB-19 CNS

| Compound | GI50 [1] [µM] | TGI [1] | GI50 [2] | TGI [2] | GI50 [3] [µM] | TGI [3] [µM] | GI50 [4] [µM] | TGI [4] [µM] | GI50 [5] [µM] | TGI [5] [µM] | GI50 [6] [µM] | TGI [6] [µM] | GI50 [7] [µM] | TGI [7] [µM] | GI50 [8] [µM] | TGI [8] [µM] | GI50 [9] [µM] | TGI [9] | GI50 [10] [µM] | TGI [10] [µM] |
| --- | --- | --- | --- | --- | --- | --- | --- | --- | --- | --- | --- | --- | --- | --- | --- | --- | --- | --- | --- | --- |
| O=C(CSC(c1ccccc1)c1ccccc1)N/N=C/c1cccc(Cl)c1 | 10.1 | 23.7 µM | 16.3 µM | 35.9 µM | 17.9 | 32.2 | 23.4 | 52.5 | 17.7 | 38.3 | 11.4 | 23.7 | 19.1 | 43.2 | 17.3 | 31.6 | – | – | – | – |
| O=C(Nc1ccc(Oc2ccc3nc(NC(=O)c4ccccc4)[nH]c3c2)cc1)Nc1cc(C(F)(F)F)ccc1F | 1.6 | > 14.9 µM | 0.969 µM | > 25 µM | 1.19 | 8.57 | 1.09 | 7.8 | 3.09 | 20.2 | 0.543 | 1.83 | 0.68 | 3.83 | 0.871 | 6.65 | 1.75 | > 25 µM | 5.56 | > 25 |
| Cc1cnc(/C=N\NC(N)=S)c2cccc(N)c12 | 3.87 | > 100 µM | 3.15 µM | > 100 µM and 53.6 µM | 3.52 | > 100 | 2.51 | > 57 | 0.587 | – | 1.25 | – | 1.5 | > 100 | 2.89 | > 100 | 1.51 | > 26.5 µM and 4.35 µM | 3.42 | > 100 |
| C=CC(C)(O)/C=C/C=C(\C)C(CC1OC1(C)C)OC(=O)/C(C)=C\C (stereo not given) | – | > 100 µM | – | > 100 µM | – | > 100 | – | > 100 | – | > 100 | – | > 100 | – | > 100 | – | > 100 | – | > 100 µM | – | > 100 |
| O=c1c2ccccc2n2n1CC(O)C2 (stereo not given) | – | > 100 µM | – | > 100 µM | > 100 | > 100 | – | > 100 | – | > 100 | – | > 100 | – | > 100 | – | > 100 | – | > 100 µM | – | > 100 |
| C/C(=N\N=C(\[Se])N1CCN(c2ccccn2)CC1)c1ccccn1 | 0.0429 | 0.761 µM and 3.2 µM | 0.0937 µM and 0.559 µM | 9.7 µM | – | 25 | 0.0408 | 21.3 | 4.17 | 54.4 | 0.0401 | 3.95 | 0.00298 | – | – | – | 0.375 | 21.3 µM | 0.13 | 18.6 |
| CCN1C(=O)NC(=O)C(C)(N2C(=O)c3c(F)c(F)c(F)c(F)c3C2=O)C1=O (stereo not given) | 1.66 | 3.97 µM | 5.76 µM | 18 µM | 3.82 | 13.3 | 1.94 | 4.86 | 0.444 | 2.22 | 4.92 | 13.7 | 2.44 | 10.1 | 5.97 | 18.3 | 3.99 | 14.6 µM | 9.49 | 24.9 |
| COc1ccc(C2=NN(C(=O)c3cc(OC)c(OC)c(OC)c3)C(c3ccc(Cl)cc3)C2)cc1OC (stereo not given) | 1.48 | > 24.3 µM | 5.86 µM | > 100 µM | 2.95 | 71.6 | 1.14 | > 54.1 | 0.448 | > 100 | 0.549 | 15.6 | 2.73 | > 100 | 5.24 | 32 | 4.89 | 56 µM | 4.15 | 44 |
| O=S(=O)(O)c1ccc(-c2nnc(-c3ccccn3)nc2-c2ccc(S(=O)(=O)O)o2)o1 | – | > 100 µM | – | > 100 µM | – | > 100 | – | > 100 | – | > 100 | – | > 100 | – | > 100 | – | > 100 | – | > 100 µM | – | > 100 |
| c1ccc(-c2cc(C3CO3)c3ccccc3n2)cc1 (stereo not given) | – | 14.6 µM | – | 34.1 µM | – | 43.6 | – | 47.9 | – | 45.3 | – | 31.4 | – | 49.7 | – | 67.5 | – | 31.3 µM | – | 95.5 |
| O=C(Nc1ccc(Cl)cc1F)c1cc(I)ccc1O | 1.14 | 10.5 µM | 1.62 µM | 8.8 µM | 0.735 | 2.64 | 1.28 | 5.73 | 1.5 | > 100 | 1.12 | 2.53 | 2.41 | 6.89 | 2.35 | 8.04 | 1.01 | 7.62 µM | 0.714 | 92 |
| C=C(C)C1CC2(C)C(C)CC(OC(=O)/C(C)=C\C)CC2C(OC(=O)/C(C)=C\C)C1O (stereo not given) | – | > 100 µM | – | > 100 µM | – | > 100 | – | > 100 | – | 45.1 | – | 43.7 | – | 60.3 | – | – | – | > 100 µM | – | > 100 |
